This passage reports microbial control results from patent US20130224126A1, “Oral Care Product and Methods of Use and Manufacture Thereof” (Colgate-Palmolive Company, priority 2010, published 2013).

Each structure is given as a SMILES string.

The assay relates to bacteria/yeast and mold. Description: Antimicrobial Preservation Effectiveness Test (micro robustness), double challenge test. The format is cell-based. The settings on record: in the mouthwash formulations, separately or in combination. As for the experimental part: The Antimicrobial Preservation Effectiveness Test is used to determine the antimicrobial preservation effectiveness of water-based product formulations by means of a double challenge test. Products are developed to withstand microbial challenges introduced by normal consumer use. The test is run on an aged sample (13 weeks, 40° C.). The test uses two pools of microorganisms: bacteria/yeast and mold. The product is challenged at a 1% level at day 0 and at day 7. Reduction of the inoculum is monitored over a 28 day period. The following are the acceptance criteria for mouth wash formulas. • Bacteria and yeast must show a 99.9% reduction (3 logs) of the bacterial inoculum as determined by plate count on day 7 following each inoculation. No increase after day 7 of the second inoculation and for the remainder of the test within normal variation of the data. • Mold must show a 90.0% reduction (1 log) of the mold inoculum as determined by the plate count on day 14 following the second inoculation (day 21). No increase from day 14 to day 21 of the second inoculation of the test within normal variation of the data.

`Cn1sccc1=O` [MIT, methylisothiazolinone]: the microbial control result is “acceptable”.
For `OCc1ccccc1` [Benzyl alcohol, benzyl alcohol], the microbial control result is recorded as “acceptable”.
